For this experiment, the system named is NF-κB. Kind of experiment: NF-κB luciferase reporter assay in LPS-stimulated RAW 264.7 macrophages. It counts as cell-based. As to conditions: Mus musculus, RAW264.7; RAW 264.7 cells with 3× NFkB response element luciferase reporter; 2 hour pretreatment, 200 ng/ml LPS for 3 hours; 6 dose point titrations in triplicate. The method, then: RAW 264.7 cells stably expressing a 3× NFkB response elemement-drive luciferase reporter were seeded into 96 well plates in sera-free medium (Optimem) 18 hours prior to compound application. Compounds of the invention were prepared by first making 100 mM stock solutions in EtOH. Stock solutions were then diluted 1:100 in low LPS FBS (Gemini BenchMark 100-106), mixed vigorously and allowed to incubate at room temperature for 30 minutes. 1:2 serial dilutions were then made in FBS supplemented with 1% EtOH, mixed vigorously, and again allowed to incubate at room temperature for 30 minutes before adding to RAW 264.7 reporter cells (final concentrations: 10% FBS, 100 uM highest compound dilution, 0.1% EtOH) for a 2 hour pretreatment prior to stimulation with LPS. Cells were then stimulated with 200 ng/ml LPS or vehicle control for 3 hours in the presence of the compounds of the invention. A set of six vehicles was left unstimulated with LPS in order to measure the assay floor. […] After the 3 h incubation period with LPS, cell viability was measured by reading fluorescence (excitation 550 nm, emission 595 nm) with a Perkin Elmer Victor V plate reader. […] Luciferase activity was measured with the Perkin Elmer Victor V plate reader. NF-κB activity was expressed as a percent of the vehicle control wells (stimulated with LPS). […]
A general note: In a reporter assay the amount or activity of a reporter protein is the signal.

pIC50: −log10 of the molar value.

Consider `CC/C=C\C/C=C\C/C=C\C/C=C\C/C=C\C/C=C\CCC(=O)NCCNC(=O)Oc1ccc2c(C(=O)c3ccc(OCCN4CCOCC4)cc3)c(-c3ccc(O)cc3)sc2c1` [III-4, 2-(4-hydroxyphenyl)-3-(4-(2-morpholinoethoxy)benzoyl)benzo[b]thiophen-6-yl 2-(4Z,7Z,10Z,13Z,16Z,19Z)-docosa-4,7,10,13,16,19-hexaenamidoethylcarbamate], for which the pIC50 is approximately 4.30.

Broadly, the pIC50 is the negative decadic logarithm of the IC50, by convention in mol/L.

The values are drawn from patent US20110212958A1, “FATTY ACID RALOXIFENE DERIVATIVES AND THEIR USES” (CATABASIS PHARMACEUTICALS, INC., priority 2010, published 2011).
